Results: publication PMC9331678 (Molecules, 2022)

Experiments:
[1] = cited from earlier work
[2] = 6 h benchtop (early preanalytical) stability in whole blood and in plasma; assay type: in vitro ADME, human; conditions: ambient temperature (25 °C), up to 6 h
Procedure: Six independent plasma samples were processed. The reference solutions were 140 µL acetonitrile-water 4:1 (v/v) mixtures spiked as described above. The mixtures and the reference solutions were subsequently diluted with 90 µL water. Internal standard-corrected matrix factors were calculated as the peak area ratios of the analytes and the internal standards in prepared plasma versus those in a neat solution. In the stability studies, the recoveries of IBR and DIB were calculated as the ratio of the concentrations measured after incubation and those measured at the beginning of the study.
The preanalytical stability of IBR and DIB was evaluated by adding 20 µL methanol solutions containing 500 ng/mL IBR and DIB to two 1.0 mL aliquots of blood freshly drawn into phlebotomy tubes containing K3-EDTA. Three samples, 3 mL each, were taken from three healthy volunteers (manuscript authors G.B.K., I.V. and Z.K.). One of the fractions was centrifuged at 3000 rpm and 10 °C for 10 min immediately after spiking the analytes, and plasma was separated. Both spiked whole blood and the separated plasma were kept at ambient temperature for 6 h. […] Fifty microliters was drawn from the supernatant of the whole blood sample as well as from the plasma, and was processed as described in Section 2.2.

[3] = cited from earlier work; remark: listed apart in the source
plasma albumin = conditions: cited from earlier work
[4] = plasma kept at ambient temperature for 24 h; ref 24 (Huynh et al.); cited from earlier work

## C=CC(=O)N1CCC[C@@H](n2nc(-c3ccc(Oc4ccccc4)cc3)c3c(N)ncnc32)C1 [Ibrutinib, 1-[(3R)-3-[4-Amino-3-(4-phenoxyphenyl)-1H-pyrazolo[3,4-d]pyrimidin-1-yl]-1-piperidinyl]-2-propen-1-one]
[1]
  oral bioavailability: low
[2]; human, plasma (separated from spiked K3-EDTA whole blood), plasma, all analyses
  recovery at 9.8 ng/mL: ≥ 85%
[2]; whole blood
  cases with recoveries lower than 85% (of fifteen analyses): two
[3]
  solubility in water: poor
Plasma albumin
  affinity to plasma albumin: > 95%
[4]
  recoveries: 46.7–72.9%
